Laboratory results as given in patent US20250382279A1, “COMPOUNDS AND METHODS FOR YAP/TEAD MODULATION AND INDICATIONS THEREFOR” (OPNA BIO SA, priority 2023, published 2025).

Each compound was assayed on TEAD-dependent transcription (assay: Inhibitor activity against TEAD-dependent transcription in a cell-based reporter assay (MSTO-211H+12XGTIIC luciferase)). Conditions: Homo sapiens; MSTO-211H+12XGTIIC cell line, 24 hours compound incubation, luminescence normalized to cell viability fluorescence; read-out: MSTO-211H GMean IC50 (uM) Cell Assay Reporter Cell Variant: TEAD.
Source text: Determine Inhibitor Activity Against TEAD-Dependent Transcription in a Cell-Based Reporter Assay
The human mesothelioma cell line MSTO-211H was stably transfected with a pGL4.21 plasmid containing a synthetic promoter with 12 copies of the GTIIC TEAD response element that drives the expression of a luciferase reporter gene^1 using Lipofectamine transfection reagent (Thermno Fisher). Transfected cells were selected using puromycin and single cell clones expressing this construct (referred to as MSTO-211H+12XGTIIC) were generated by limiting dilution. MSTO-211H cells was characterized by genetic alterations in key components of the Hippo pathway^2, resulting in up-regulation of YAP/TEAD-mediated transcription. […] To evaluate TEAD inhibitors, the MSTO-211H+12XGTIIC cell line was seeded in a 96-well plate in 50 μL of culture media at 1×10^4 cells per well and incubated at 37° C. overnight. Serial dilutions of compounds (in total volume of 50 μL of culture media) were added to the cells and incubated at 37° C. for 24 hours. Each plate included cells treated with DMSO as high controls and cells treated with 20 μM of the reference compound K-975 (a known TEAD inhibitor)^3 as low controls. Cell viability was assayed by the addition of 25 μL of CellTiter-Fluor reagent (Promega) followed by a 30-minute incubation at 37° C. and quantification of the fluorescence signal (Ex400/Em505). Subsequently, luciferase expression was assayed by the addition of 25 μL of ONE-Glo reagent (Promega) followed by a 10-minute incubation at room temperature and quantification of the luminescence signal. The luminescence signal was normalized to the fluorescence signal to correct for any loss in cell viability over the 24-hour compound incubation period. The percentage of inhibition of normalized luminescence signal, indicative of compound-mediated inhibition of TEAD-dependent transcription, at individual compound concentrations relative to high and low controls was calculated. The data were analyzed by using nonlinear regression to generate IC50 values for individual compounds.

**Q.** For `CS(=O)(=O)c1cccc(N2CCc3c(Oc4ccc(C(F)(F)F)cc4)cccc3C2=O)c1` [O-0001, 2-(3-(methylsulfonyl)phenyl)-5-(4-(trifluoromethyl)phenoxy)-3,4-dihydroisoquinolin-1(2H)-one], which IC50 is on record?
**A.** The IC50 was 0.001 to 10 µM.

**Q.** How did the IC50 turn out when `CS(=O)(=O)c1ccc(N2CCc3c(Oc4ccc(C(F)(F)F)cc4)cccc3C2=O)cc1` [O-0002, 2-(4-(methylsulfonyl)phenyl)-5-(4-(trifluoromethyl)phenoxy)-3,4-dihydroisoquinolin-1(2H)-one] was run?
**A.** Its IC50 is 0.001 to 10 µM.

**Q.** How did the IC50 turn out when `O=C1c2cccc(Oc3ccc(C(F)(F)F)cc3)c2CCN1c1cccc(C(F)(F)F)c1` [O-0003, 5-(4-(trifluoromethyl)phenoxy)-2-(3-(trifluoromethyl)phenyl)-3,4-dihydroisoquinolin-1(2H)-one] was run?
**A.** The IC50 was 0.001 to 10 µM.

**Q.** How did the IC50 turn out when `O=C1c2cccc(Oc3ccc(C(F)(F)F)cc3)c2CCN1c1ccc(S(=O)(=O)C(F)(F)F)cc1` [O-0004, 5-(4-(trifluoromethyl)phenoxy)-2-(4-((trifluoromethyl)sulfonyl)phenyl)-3,4-dihydroisoquinolin-1(2H)-one] was run?
**A.** The IC50 was 0.001 to 10 µM.

**Q.** With `O=C1c2cccc(Oc3ccc(C(F)(F)F)cc3)c2CCN1c1cccc(S(=O)(=O)C(F)(F)F)c1` [O-0005, 5-(4-(trifluoromethyl)phenoxy)-2-(3-((trifluoromethyl)sulfonyl)phenyl)-3,4-dihydroisoquinolin-1(2H)-one] as the compound, how does the IC50 read?
**A.** The IC50 was 0.001 to 10 µM.

**Q.** With `CS(=O)(=O)C1CC(N2CCc3c(Oc4ccc(C(F)(F)F)cc4)cccc3C2=O)C1` (centres unmarked) [O-0006, 2-(3-(methylsulfonyl)cyclobutyl)-5-(4-(trifluoromethyl)phenoxy)-3,4-dihydroisoquinolin-1(2H)-one] as the compound, how does the IC50 read?
**A.** The IC50 was 0.001 to 10 µM.

**Q.** Which IC50 does the source give for `CS(=O)(=O)c1nccc(N2CCc3c(Oc4ccc(C(F)(F)F)cc4)cccc3C2=O)n1` [O-0007, 2-(2-(methylsulfonyl)pyrimidin-4-yl)-5-(4-(trifluoromethyl)phenoxy)-3,4-dihydroisoquinolin-1(2H)-one] here?
**A.** The IC50 was 0.001 to 10 µM.

**Q.** `Nc1ccc(N2CCc3c(Oc4ccc(C(F)(F)F)cc4)cccc3C2=O)cc1` [O-0010, 2-(4-aminophenyl)-5-(4-(trifluoromethyl)phenoxy)-3,4-dihydroisoquinolin-1(2H)-one] was tested. Which IC50 did it give?
**A.** The IC50 was 0.001 to 10 µM.

**Q.** Which IC50 does the source give for `Nc1cccc(N2CCc3c(Oc4ccc(C(F)(F)F)cc4)cccc3C2=O)c1` [O-0011, 2-(3-aminophenyl)-5-(4-(trifluoromethyl)phenoxy)-3,4-dihydroisoquinolin-1(2H)-one] here?
**A.** Its IC50 is 0.001 to 10 µM.

**Q.** Which IC50 does the source give for `C=CC(=O)Nc1cccc(N2CCc3c(Oc4ccc(C(F)(F)F)cc4)cccc3C2=O)c1` [O-0012, N-(3-(1-oxo-5-(4-(trifluoromethyl)phenoxy)-3,4-dihydroisoquinolin-2(1H)-yl)phenyl)acrylamide] here?
**A.** Its IC50 is 0.001 to 10 µM.

**Q.** Which IC50 does the source give for `C=CC(=O)Nc1ccc(N2CCc3c(Oc4ccc(C(F)(F)F)cc4)cccc3C2=O)cc1` [O-0013, N-(4-(1-oxo-5-(4-(trifluoromethyl)phenoxy)-3,4-dihydroisoquinolin-2(1H)-yl)phenyl)acrylamide] here?
**A.** Its IC50 is 0.001 to 10 µM.

**Q.** `O=C1c2cccc(Oc3ccc(C(F)(F)F)cc3)c2CCN1c1ccc2nc(C(F)(F)F)sc2c1` [O-0014, 2-(2-(trifluoromethyl)benzo[d]thiazol-6-yl)-5-(4-(trifluoromethyl)phenoxy)-3,4-dihydroisoquinolin-1(2H)-one] was tested. Which IC50 did it give?
**A.** The IC50 was 0.001 to 10 µM.

**Q.** For `O=C1c2cccc(Oc3ccc(C(F)(F)F)cc3)c2CCN1c1ccc2nc(C(F)(F)F)[nH]c2c1` [O-0016, 2-(2-(trifluoromethyl)-1H-benzo[d]imidazol-6-yl)-5-(4-(trifluoromethyl)phenoxy)-3,4-dihydroisoquinolin-1(2H)-one], which IC50 is on record?
**A.** The IC50 was 0.001 to 10 µM.

**Q.** `N#Cc1nc2ccc(N3CCc4c(Oc5ccc(C(F)(F)F)cc5)cccc4C3=O)cc2o1` [O-0017, 6-(1-oxo-5-(4-(trifluoromethyl)phenoxy)-3,4-dihydroisoquinolin-2(1H)-yl)benzo[d]oxazole-2-carbonitrile] was tested. Which IC50 did it give?
**A.** Its IC50 is 0.001 to 10 µM.

**Q.** `CS(=O)(=O)N1CCC(N2CCc3c(Oc4ccc(C(F)(F)F)cc4)cccc3C2=O)CC1` [O-0018, 2-(1-(methylsulfonyl)piperidin-4-yl)-5-(4-(trifluoromethyl)phenoxy)-3,4-dihydroisoquinolin-1(2H)-one] was tested. Which IC50 did it give?
**A.** Its IC50 is 0.001 to 10 µM.

**Q.** How did the IC50 turn out when `O=C1c2cccc(Oc3ccc(C(F)(F)F)cc3)c2CCN1c1ccnc(S(=O)(=O)C(F)(F)F)n1` [O-0019, 5-(4-(trifluoromethyl)phenoxy)-2-(2-((trifluoromethyl)sulfonyl)pyrimidin-4-yl)-3,4-dihydroisoquinolin-1(2H)-one] was run?
**A.** Its IC50 is 0.001 to 10 µM.

**Q.** For `O=C1c2cccc(Oc3ccc(C(F)(F)F)cc3)c2CCN1C1CCN(S(=O)(=O)C(F)(F)F)CC1` [O-0020, 5-(4-(trifluoromethyl)phenoxy)-2-(1-((trifluoromethyl)sulfonyl)piperidin-4-yl)-3,4-dihydroisoquinolin-1(2H)-one], which IC50 is on record?
**A.** Its IC50 is 0.001 to 10 µM.

**Q.** For `CS(=O)(=O)N1CCCC(N2CCc3c(Oc4ccc(C(F)(F)F)cc4)cccc3C2=O)C1` (centres unmarked) [O-0022, 2-(1-(methylsulfonyl)piperidin-3-yl)-5-(4-(trifluoromethyl)phenoxy)-3,4-dihydroisoquinolin-1(2H)-one], which IC50 is on record?
**A.** Its IC50 is 0.001 to 10 µM.

**Q.** How did the IC50 turn out when `CS(=O)(=O)N1CCC(N2CCc3c(Oc4ccc(C(F)(F)F)cc4)cccc3C2=O)C1` (centres unmarked) [O-0027, 2-(1-(methylsulfonyl)pyrrolidin-3-yl)-5-(4-(trifluoromethyl)phenoxy)-3,4-dihydroisoquinolin-1(2H)-one] was run?
**A.** The IC50 was 0.001 to 10 µM.

**Q.** Which IC50 does the source give for `CS(=O)(=O)c1cccc(N2CCc3ccc(Oc4ccc(C(F)(F)F)cc4)cc3C2=O)n1` [O-0031, 2-(6-(methylsulfonyl)pyridin-2-yl)-7-(4-(trifluoromethyl)phenoxy)-3,4-dihydroisoquinolin-1(2H)-one] here?
**A.** The IC50 was 0.001 to 10 µM.

**Q.** For `O=C1c2cc(Oc3ccc(C(F)(F)F)cc3)ccc2CCN1c1cccc(S(=O)(=O)C(F)(F)F)n1` [O-0032, 7-(4-(trifluoromethyl)phenoxy)-2-(6-((trifluoromethyl)sulfonyl)pyridin-2-yl)-3,4-dihydroisoquinolin-1(2H)-one], which IC50 is on record?
**A.** Its IC50 is 0.001 to 10 µM.

**Q.** For `CS(=O)(=O)c1ccnc(N2CCc3ccc(Oc4ccc(C(F)(F)F)cc4)cc3C2=O)c1` [O-0033, 2-(4-(methylsulfonyl)pyridin-2-yl)-7-(4-(trifluoromethyl)phenoxy)-3,4-dihydroisoquinolin-1(2H)-one], which IC50 is on record?
**A.** The IC50 was 0.001 to 10 µM.

**Q.** For `O=C1c2cc(Oc3ccc(C(F)(F)F)cc3)ccc2CCN1c1cccc(S(=O)(=O)C(F)(F)F)c1` [O-0035, 7-(4-(trifluoromethyl)phenoxy)-2-(3-((trifluoromethyl)sulfonyl)phenyl)-3,4-dihydroisoquinolin-1(2H)-one], which IC50 is on record?
**A.** Its IC50 is 0.001 to 10 µM.

**Q.** Which IC50 does the source give for `CS(=O)(=O)c1nccc(N2CCc3ccc(Oc4ccc(C(F)(F)F)cc4)cc3C2=O)n1` [O-0036, 2-(2-(methylsulfonyl)pyrimidin-4-yl)-7-(4-(trifluoromethyl)phenoxy)-3,4-dihydroisoquinolin-1(2H)-one] here?
**A.** The IC50 was 0.001 to 10 µM.

**Q.** `O=C1c2cc(Oc3ccc(C(F)(F)F)cc3)ccc2CCN1c1cccc(-c2nccs2)c1` [O-0038, 2-(3-(thiazol-2-yl)phenyl)-7-(4-(trifluoromethyl)phenoxy)-3,4-dihydroisoquinolin-1(2H)-one] was tested. Which IC50 did it give?
**A.** The IC50 was 0.001 to 10 µM.

**Q.** For `O=C1c2cc(Oc3ccc(C(F)(F)F)cc3)ccc2CCN1c1cccc(-c2cscn2)c1` [O-0039, 2-(3-(thiazol-4-yl)phenyl)-7-(4-(trifluoromethyl)phenoxy)-3,4-dihydroisoquinolin-1(2H)-one], which IC50 is on record?
**A.** Its IC50 is 0.001 to 10 µM.

**Q.** `O=C1c2cc(Oc3ccc(C(F)(F)F)cc3)ccc2CCN1c1ccnc(S(=O)(=O)C(F)(F)F)n1` [O-0044, 7-(4-(trifluoromethyl)phenoxy)-2-(2-((trifluoromethyl)sulfonyl)pyrimidin-4-yl)-3,4-dihydroisoquinolin-1(2H)-one] was tested. Which IC50 did it give?
**A.** Its IC50 is 0.001 to 10 µM.

**Q.** How did the IC50 turn out when `O=C1c2cc(Oc3ccc(C(F)(F)F)cc3)ccc2CCN1c1ccc2nc(C(F)(F)F)[nH]c2c1` [O-0045, 2-(2-(trifluoromethyl)-1H-benzo[d]imidazol-6-yl)-7-(4-(trifluoromethyl)phenoxy)-3,4-dihydroisoquinolin-1(2H)-one] was run?
**A.** The IC50 was 0.001 to 10 µM.

**Q.** For `O=C1c2cc(Oc3ccc(C(F)(F)F)cc3)ccc2CCN1c1ccc2nc(C(F)(F)F)sc2c1` [O-0046, 2-(2-(trifluoromethyl)benzo[d]thiazol-6-yl)-7-(4-(trifluoromethyl)phenoxy)-3,4-dihydroisoquinolin-1(2H)-one], which IC50 is on record?
**A.** Its IC50 is 0.001 to 10 µM.

**Q.** `C=CC(=O)Nc1cncc(N2CCc3ccc(Oc4ccc(C(F)(F)F)cc4)cc3C2=O)c1` [O-0108, N-(5-(1-oxo-7-(4-(trifluoromethyl)phenoxy)-3,4-dihydroisoquinolin-2(1H)-yl)pyridin-3-yl)acrylamide] was tested. Which IC50 did it give?
**A.** The IC50 was 0.001 to 10 µM.

**Q.** For `Nc1cncc(N2CCc3ccc(Oc4ccc(C(F)(F)F)cc4)cc3C2=O)c1` [O-0110, 2-(5-aminopyridin-3-yl)-7-(4-(trifluoromethyl)phenoxy)-3,4-dihydroisoquinolin-1(2H)-one], which IC50 is on record?
**A.** The IC50 was 0.001 to 10 µM.

**Q.** How did the IC50 turn out when `Nc1cccc(N2CCc3ccc(Oc4ccc(C(F)(F)F)cc4)cc3C2=O)n1` [O-0111, 2-(6-aminopyridin-2-yl)-7-(4-(trifluoromethyl)phenoxy)-3,4-dihydroisoquinolin-1(2H)-one] was run?
**A.** The IC50 was 0.001 to 10 µM.
